# Measured values taken from US12492193B2, “Pyrazole derivatives for the treatment of cystic fibrosis” (Fondazione Istituto Italiano Di Tecnologia, priority 2017, dated 2025).
# Target: T1, mutant CFTR (Homo sapiens, UniProt P13569, DEL508-508)
# T1 construct: expressed in transfected cells
# Assay: Fluorescence (HS-YFP) assay for CFTR activity, corrector assay
# Type: cell-based
# Conditions: CFBE41o- and FRT cells with stable expression of mutant CFTR, 24 h compound treatment
# Summary of the method: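 CFBE41o- or FRT cells stably expressing mutant CFTR and HS-YFP were exposed to compounds for 24 h (corrector mode), then stimulated 30 min at 37° C with forskolin (20 μM) plus genistein (50 μM). YFP quenching after 100 mM iodide injection; initial slope from exponential fit of final 10 s; EC50 reported.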
# T1 sequence (P13569 with tags, fused parts or gaps DEL508-508): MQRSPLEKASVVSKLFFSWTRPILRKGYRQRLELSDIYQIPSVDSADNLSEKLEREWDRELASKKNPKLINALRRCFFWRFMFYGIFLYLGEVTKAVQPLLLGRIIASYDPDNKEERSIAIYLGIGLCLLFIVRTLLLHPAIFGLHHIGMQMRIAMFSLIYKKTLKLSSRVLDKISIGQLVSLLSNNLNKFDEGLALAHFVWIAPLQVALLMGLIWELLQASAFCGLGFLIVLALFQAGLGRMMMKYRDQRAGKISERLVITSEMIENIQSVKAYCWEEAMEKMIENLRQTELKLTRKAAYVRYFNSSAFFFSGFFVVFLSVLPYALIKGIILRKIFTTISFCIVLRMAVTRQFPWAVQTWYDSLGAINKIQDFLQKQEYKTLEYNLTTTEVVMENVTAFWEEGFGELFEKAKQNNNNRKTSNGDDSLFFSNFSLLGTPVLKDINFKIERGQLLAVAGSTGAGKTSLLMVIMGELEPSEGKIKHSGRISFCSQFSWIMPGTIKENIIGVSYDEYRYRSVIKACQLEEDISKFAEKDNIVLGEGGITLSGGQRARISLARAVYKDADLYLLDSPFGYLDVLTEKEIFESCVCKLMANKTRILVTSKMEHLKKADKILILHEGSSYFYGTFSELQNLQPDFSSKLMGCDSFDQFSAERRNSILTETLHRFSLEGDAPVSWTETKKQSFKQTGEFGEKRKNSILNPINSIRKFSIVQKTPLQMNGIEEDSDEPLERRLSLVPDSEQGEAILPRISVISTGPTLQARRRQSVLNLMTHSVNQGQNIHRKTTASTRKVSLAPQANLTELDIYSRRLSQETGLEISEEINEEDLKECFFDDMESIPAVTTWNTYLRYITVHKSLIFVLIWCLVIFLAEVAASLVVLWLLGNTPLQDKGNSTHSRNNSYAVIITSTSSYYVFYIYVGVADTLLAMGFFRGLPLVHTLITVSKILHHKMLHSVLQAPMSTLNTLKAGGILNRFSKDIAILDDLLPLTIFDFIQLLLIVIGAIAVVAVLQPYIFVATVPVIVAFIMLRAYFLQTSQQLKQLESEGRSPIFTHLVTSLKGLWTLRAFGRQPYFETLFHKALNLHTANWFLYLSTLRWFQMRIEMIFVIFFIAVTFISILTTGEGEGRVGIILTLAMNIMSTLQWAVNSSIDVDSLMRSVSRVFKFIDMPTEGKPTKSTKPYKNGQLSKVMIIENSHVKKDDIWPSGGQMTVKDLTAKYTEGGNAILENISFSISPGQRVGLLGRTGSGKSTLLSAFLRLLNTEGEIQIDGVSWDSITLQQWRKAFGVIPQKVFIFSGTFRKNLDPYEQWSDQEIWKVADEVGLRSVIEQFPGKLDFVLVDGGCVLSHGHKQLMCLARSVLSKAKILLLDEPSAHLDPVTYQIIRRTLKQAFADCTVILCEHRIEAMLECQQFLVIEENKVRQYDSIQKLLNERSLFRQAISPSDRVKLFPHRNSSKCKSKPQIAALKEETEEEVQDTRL
row,SMILES,EC50 [µM]
1,"Cc1nn(-c2cccc(C(=O)N(C)c3ccc4oc(C(F)(F)F)nc4c3)c2)c(C)c1Cl [compound 078, 3-(4-Chloro-3,5-dimethyl-pyrazol-1-yl)-N-methyl-N-[2-(trifluoromethyl)-1,3-benzoxazol-5-yl]benzamide]",> 2
2,"CCN(C(=O)c1cccc(-n2nc(C)c(Cl)c2C)c1)c1ccc2c(c1)OCCO2 [compound 004, 3-(4-Chloro-3,5-dimethyl-pyrazol-1-yl)-N-(2,3-dihydro-1,4-benzodioxin-6-yl)-N-ethyl-benzamide]",< 1
3,"Cc1nn(-c2cccc(C(=O)Nc3ccc4oc(C(C)C)nc4c3)c2)c(C)c1Cl [Int-061, 3-(4-Chloro-3,5-dimethyl-pyrazol-1-yl)-N-(2-isopropyl-1,3-benzoxazol-5-yl)benzamide]",> 2
4,"O=C(Nc1ccc2c(c1)OCO2)c1cccc(-n2nc(C(F)(F)F)c(Cl)c2C2CC2)c1 [compound 165, N-(1,3-Benzodioxol-5-yl)-3-[4-chloro-5-cyclopropyl-3-(trifluoromethyl)pyrazol-1-yl]benzamide]",> 2
5,"CN(C(=O)c1cccc(-n2nc(C(F)(F)F)cc2-c2cccs2)c1)c1ccc2c(c1)OCO2 [compound 166, N-(1,3-Benzodioxol-5-yl)-N-methyl-3-[5-(2-thienyl)-3-(trifluoromethyl)pyrazol-1-yl]benzamide]",< 1
6,"Cc1nn(-c2cccc(C(=O)N(C)c3ccc4c(c3)OCO4)n2)c(C)c1Cl [compound 050, N-(1,3-Benzodioxol-5-yl)-6-(4-chloro-3,5-dimethyl-pyrazol-1-yl)-N-methyl-pyridine-2-carboxamide]",> 2
7,"CC(C)Oc1cc(C(F)(F)F)nn1-c1cccc(C(=O)N(C)c2ccc3c(c2)OCO3)c1 [compound 131, N-(1,3-benzodioxol-5-yl)-3-[5-isopropoxy-3-(trifluoromethyl)pyrazol-1-yl]-N-methyl-benzamide]",< 1
8,"CC(C)(C)OC(=O)c1ccc(OCc2c(Cl)c(C(F)(F)F)nn2-c2cccc(C(=O)Nc3ccc4c(c3)OC(F)(F)O4)c2)cc1 [Int-172, Tert-butyl 4-[[4-chloro-2-[3-[(2,2-difluoro-1,3-benzodioxol-5-yl)carbamoyl]phenyl]-5-(trifluoromethyl)pyrazol-3-yl]methoxy]benzoate]",> 2
9,"COc1nc2cc(N(C)C(=O)c3cccc(-n4nc(C)c(Cl)c4C)c3)ccc2o1 [compound 064, 3-(4-Chloro-3,5-dimethyl-pyrazol-1-yl)-N-(2-methoxy-1,3-benzoxazol-5-yl)-N-methyl-benzamide]",> 2
10,"[2H]C([2H])([2H])N(C(=O)c1cccc(-n2nc(C(F)(F)F)c(Cl)c2COc2ccc(C(=O)OC(C)(C)C)cc2)c1)c1ccc2c(c1)OC(F)(F)O2 [compound 181, Tert-butyl 4-[[4-chloro-2-[3-[(2,2-difluoro-1,3-benzodioxol-5-yl)-(trideuteriomethyl)carbamoyl]phenyl]-5-(trifluoromethyl)pyrazol-3-yl]methoxy]benzoate]",< 1
11,"CN(C(=O)c1cccc(-n2nc(C(F)(F)F)cc2-c2ccc(Cl)s2)c1)c1ccc2c(c1)OCO2 [compound 164, N-(1,3-Benzodioxol-5-yl)-3-[5-(5-chloro-2-thienyl)-3-(trifluoromethyl)pyrazol-1-yl]-N-methyl-benzamide]",< 1
12,"CCOC(=O)c1c(Cl)c(C)nn1-c1cccc(C(=O)N(C)c2ccc3c(c2)OCCO3)c1 [compound 103, Ethyl 4-chloro-2-[3-[2,3-dihydro-1,4-benzodioxin-6-yl (methyl)carbamoyl]phenyl]-5-methyl-pyrazole-3-carboxylate]",< 1
13,"Cc1cc2c(cc1NC(=O)c1cccc(-n3nc(C)c(Cl)c3C)c1)OCO2 [Int-041, 3-(4-Chloro-3,5-dimethyl-pyrazol-1-yl)-N-(6-methyl-1,3-benzodioxol-5-yl)benzamide]",> 2
14,"CCOC(=O)c1c(C)nn(-c2cccc(C(=O)N(C)c3ccc4c(c3)OCO4)c2)c1C [compound 043, Ethyl 1-[3-[1,3-benzodioxol-5-yl(methyl)carbamoyl]phenyl]-3,5-dimethyl-pyrazole-4-carboxylate]",> 2
15,"Cc1c(Cl)c(C(F)(F)F)nn1-c1cccc(C(=O)N(C)c2cc3c(cc2C(=O)O)OCO3)c1 [compound 179, 6-[[3-[4-chloro-5-methyl-3-(trifluoromethyl)pyrazol-1-yl]benzoyl]-methyl-amino]-1,3-benzodioxole-5-carboxylic acid]",> 2
16,"Cc1nn(-c2cccc(C(=O)N(C)c3ccc4c(c3)NCCO4)c2)c(C)c1Cl [compound 038, 3-(4-Chloro-3,5-dimethyl-pyrazol-1-yl)-N-(3,4-dihydro-2H-1,4-benzoxazin-4-ium-6-yl)-N-methyl-benzamide 2,2,2-trifluoroacetate]",> 2
17,"CN(C(=O)c1cccc(-n2nc(C(F)(F)F)cc2OC2CCC(C(=O)O)CC2)c1)c1ccc2c(c1)OCO2 (mixture of isomers) [compound 215, 4-[2-[3-[1,3-benzodioxol-5-yl(methyl)carbamoyl]phenyl]-5-(trifluoromethyl)pyrazol-3-yl]oxycyclohexane carboxylic acid]",< 1
18,"CN(C(=O)c1cccc(-n2nc(C(F)(F)F)cc2OCC23CC(C(=O)O)(C2)C3)c1)c1ccc2c(c1)OC(F)(F)O2 [compound 255, 3-[[2-[3-[(2,2-Difluoro-1,3-benzodioxol-5-yl)-methyl-carbamoyl]phenyl]-5-(trifluoromethyl)pyrazol-3-yl]oxymethyl]bicyclo[1.1.1]pentane-1-carboxylic acid]",< 1
19,"CN(C(=O)c1cccc(-n2nc(C(F)(F)F)cc2OCc2ccc(C(=O)OC(C)(C)C)cc2)c1)c1ccc2c(c1)OC(F)(F)O2 [compound 191, Tert-butyl 4-[[2-[3-[(2,2-difluoro-1,3-benzodioxol-5-yl)-methyl-carbamoyl]phenyl]-5-(trifluoromethyl)pyrazol-3-yl]oxymethyl]benzoate]",< 1
20,"Cc1c(Cl)c(C(F)(F)F)nn1-c1cccc(C(=O)Nc2cc3c(cc2Cl)OCO3)c1 [compound 127, N-(6-Chloro-1,3-benzodioxol-5-yl)-3-[4-chloro-5-methyl-3-(trifluoromethyl)pyrazol-1-yl]benzamide]",> 2
21,"Cc1nc2ccc(N(C)C(=O)c3cccc(-n4nc(C)c(Cl)c4C)c3)cc2o1 [compound 047, 3-(4-Chloro-3,5-dimethyl-pyrazol-1-yl)-N-methyl-N-(2-methyl-1,3-benzoxazol-6-yl)benzamide]",< 1
22,"Cc1nn(-c2cccc(C(=O)N(C)c3ccc4c(c3)OCO4)c2)c(COc2ccccc2)c1Cl [compound 118, N-(1,3-Benzodioxol-5-yl)-3-[4-chloro-3-methyl-5-(phenoxymethyl)pyrazol-1-yl]-N-methyl-benzamide]",< 1
23,"CN(C(=O)c1cccc(-n2nc(C(F)(F)F)c(Cl)c2CO)c1)c1ccc2c(c1)OC(F)(F)O2 [compound 217, 3-[4-Chloro-5-(hydroxymethyl)-3-(trifluoromethyl)pyrazol-1-yl]-N-(2,2-difluoro-1,3-benzodioxol-5-yl)-N-methyl-benzamide]",< 1
24,"Cc1nn(-c2cccc(C(=O)Nc3ccc4c(c3)OCCO4)c2)c(C)c1Cl [Int-002, 3-(4-Chloro-3,5-dimethyl-pyrazol-1-yl)-N-(2,3-dihydro-1,4-benzodioxin-6-yl)benzamide]",> 2
